Data reported in ChEMBL document CHEMBL3797128, “N,N-Disubstituted thiourea and urea derivatives: design, synthesis, docking studies and biological evaluation against nitric oxide synthase” (Medchemcomm, 2016).
pIC50: −log10 of the molar value. Active and inactive are the calls of the source. No cut-off for these calls is given here.

Tests used:
[1] = biological target: Nitric oxide synthase, inducible (Homo sapiens) (UniProt P35228); experiment: Inhibition of recombinant N-terminal His-tagged human iNOS expressed in Escherichia coli assessed as L-[3H]-citrulline formation at 1 mM using L-[3H]-arginine as substrate after 30 mins by liquid scintillation spectroscopy
Target sequence in this assay (P35228 whole entry): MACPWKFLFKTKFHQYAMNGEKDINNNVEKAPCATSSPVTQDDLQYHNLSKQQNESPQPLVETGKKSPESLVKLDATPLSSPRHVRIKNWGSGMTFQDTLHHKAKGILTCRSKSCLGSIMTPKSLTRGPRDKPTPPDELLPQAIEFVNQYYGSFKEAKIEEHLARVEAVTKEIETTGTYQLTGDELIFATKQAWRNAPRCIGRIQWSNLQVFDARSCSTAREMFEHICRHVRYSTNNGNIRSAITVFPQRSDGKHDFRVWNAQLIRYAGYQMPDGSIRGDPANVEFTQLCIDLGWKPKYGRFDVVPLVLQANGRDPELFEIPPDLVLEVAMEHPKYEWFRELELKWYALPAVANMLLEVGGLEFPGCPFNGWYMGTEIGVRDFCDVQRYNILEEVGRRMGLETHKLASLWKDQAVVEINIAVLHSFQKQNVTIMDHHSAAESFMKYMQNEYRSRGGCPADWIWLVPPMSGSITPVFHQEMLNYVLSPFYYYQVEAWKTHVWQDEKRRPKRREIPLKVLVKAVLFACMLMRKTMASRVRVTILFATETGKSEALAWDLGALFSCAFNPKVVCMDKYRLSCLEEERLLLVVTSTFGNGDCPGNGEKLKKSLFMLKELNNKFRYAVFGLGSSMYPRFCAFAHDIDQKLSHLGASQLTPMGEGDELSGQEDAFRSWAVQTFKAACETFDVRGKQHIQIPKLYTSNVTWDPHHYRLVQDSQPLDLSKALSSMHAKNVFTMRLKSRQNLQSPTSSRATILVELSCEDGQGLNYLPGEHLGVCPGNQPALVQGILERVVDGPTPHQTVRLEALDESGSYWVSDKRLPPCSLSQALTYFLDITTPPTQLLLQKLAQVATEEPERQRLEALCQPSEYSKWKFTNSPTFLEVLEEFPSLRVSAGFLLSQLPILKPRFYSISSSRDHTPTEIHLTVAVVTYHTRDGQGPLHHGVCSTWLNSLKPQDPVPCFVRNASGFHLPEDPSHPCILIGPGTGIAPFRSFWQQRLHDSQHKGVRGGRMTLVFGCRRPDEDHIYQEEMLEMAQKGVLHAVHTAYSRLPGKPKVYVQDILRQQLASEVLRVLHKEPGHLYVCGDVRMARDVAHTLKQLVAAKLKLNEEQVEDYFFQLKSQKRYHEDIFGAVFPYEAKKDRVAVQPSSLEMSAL

[2] = biological target: Nitric oxide synthase 1 (Homo sapiens) (UniProt P29475); experiment: Inhibition of recombinant nNOS (unknown origin) assessed as L-[3H]-citrulline formation at 1 mM using L-[3H]-arginine as substrate after 30 mins by liquid scintillation spectroscopy
Nitric oxide synthase 1 (Homo sapiens), sequence (P29475 whole entry): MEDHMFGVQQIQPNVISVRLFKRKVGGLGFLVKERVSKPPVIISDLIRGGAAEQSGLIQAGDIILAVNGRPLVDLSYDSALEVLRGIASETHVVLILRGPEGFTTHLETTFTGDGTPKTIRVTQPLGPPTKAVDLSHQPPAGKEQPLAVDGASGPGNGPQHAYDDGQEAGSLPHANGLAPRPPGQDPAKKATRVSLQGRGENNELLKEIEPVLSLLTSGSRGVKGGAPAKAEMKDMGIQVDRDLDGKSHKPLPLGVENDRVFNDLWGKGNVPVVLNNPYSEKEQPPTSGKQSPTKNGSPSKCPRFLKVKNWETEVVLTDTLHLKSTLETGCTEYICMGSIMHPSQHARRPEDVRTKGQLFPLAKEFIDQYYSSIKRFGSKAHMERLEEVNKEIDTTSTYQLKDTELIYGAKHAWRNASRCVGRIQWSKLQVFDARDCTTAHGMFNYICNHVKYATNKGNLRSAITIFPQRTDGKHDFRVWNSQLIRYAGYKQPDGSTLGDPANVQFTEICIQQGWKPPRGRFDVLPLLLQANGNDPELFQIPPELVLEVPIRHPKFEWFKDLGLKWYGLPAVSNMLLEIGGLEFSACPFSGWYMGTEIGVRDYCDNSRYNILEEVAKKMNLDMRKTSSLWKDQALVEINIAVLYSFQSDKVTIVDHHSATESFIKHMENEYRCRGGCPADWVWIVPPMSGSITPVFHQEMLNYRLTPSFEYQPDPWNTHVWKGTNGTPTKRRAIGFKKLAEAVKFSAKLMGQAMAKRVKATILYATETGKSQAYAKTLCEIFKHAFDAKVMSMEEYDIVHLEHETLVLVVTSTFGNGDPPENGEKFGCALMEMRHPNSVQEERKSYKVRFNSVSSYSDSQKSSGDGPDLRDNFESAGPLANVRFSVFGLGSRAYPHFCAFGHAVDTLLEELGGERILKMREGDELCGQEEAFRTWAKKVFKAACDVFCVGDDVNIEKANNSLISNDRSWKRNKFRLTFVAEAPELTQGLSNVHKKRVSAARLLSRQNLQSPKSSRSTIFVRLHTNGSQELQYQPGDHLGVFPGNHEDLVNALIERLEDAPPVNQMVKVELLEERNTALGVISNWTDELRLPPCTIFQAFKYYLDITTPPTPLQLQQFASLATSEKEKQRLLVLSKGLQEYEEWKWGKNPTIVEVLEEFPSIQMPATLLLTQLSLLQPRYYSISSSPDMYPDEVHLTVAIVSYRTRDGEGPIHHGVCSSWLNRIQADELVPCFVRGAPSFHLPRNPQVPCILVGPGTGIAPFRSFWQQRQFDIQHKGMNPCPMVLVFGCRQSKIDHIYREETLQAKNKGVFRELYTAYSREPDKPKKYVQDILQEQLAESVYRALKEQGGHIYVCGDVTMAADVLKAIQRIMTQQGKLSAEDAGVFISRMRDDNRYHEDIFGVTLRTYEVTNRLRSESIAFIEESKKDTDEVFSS

[3] = biological target: T1, Nitric oxide synthase 3 (Rattus norvegicus) (UniProt Q62600); experiment: Inhibition of eNOS in Wistar rat aortic rings assessed as suppression of acetylcholine evoked endothelial dependent relaxation of precontracted aortic rings at 100 umol/l after 30 mins
T1 sequence (whole entry): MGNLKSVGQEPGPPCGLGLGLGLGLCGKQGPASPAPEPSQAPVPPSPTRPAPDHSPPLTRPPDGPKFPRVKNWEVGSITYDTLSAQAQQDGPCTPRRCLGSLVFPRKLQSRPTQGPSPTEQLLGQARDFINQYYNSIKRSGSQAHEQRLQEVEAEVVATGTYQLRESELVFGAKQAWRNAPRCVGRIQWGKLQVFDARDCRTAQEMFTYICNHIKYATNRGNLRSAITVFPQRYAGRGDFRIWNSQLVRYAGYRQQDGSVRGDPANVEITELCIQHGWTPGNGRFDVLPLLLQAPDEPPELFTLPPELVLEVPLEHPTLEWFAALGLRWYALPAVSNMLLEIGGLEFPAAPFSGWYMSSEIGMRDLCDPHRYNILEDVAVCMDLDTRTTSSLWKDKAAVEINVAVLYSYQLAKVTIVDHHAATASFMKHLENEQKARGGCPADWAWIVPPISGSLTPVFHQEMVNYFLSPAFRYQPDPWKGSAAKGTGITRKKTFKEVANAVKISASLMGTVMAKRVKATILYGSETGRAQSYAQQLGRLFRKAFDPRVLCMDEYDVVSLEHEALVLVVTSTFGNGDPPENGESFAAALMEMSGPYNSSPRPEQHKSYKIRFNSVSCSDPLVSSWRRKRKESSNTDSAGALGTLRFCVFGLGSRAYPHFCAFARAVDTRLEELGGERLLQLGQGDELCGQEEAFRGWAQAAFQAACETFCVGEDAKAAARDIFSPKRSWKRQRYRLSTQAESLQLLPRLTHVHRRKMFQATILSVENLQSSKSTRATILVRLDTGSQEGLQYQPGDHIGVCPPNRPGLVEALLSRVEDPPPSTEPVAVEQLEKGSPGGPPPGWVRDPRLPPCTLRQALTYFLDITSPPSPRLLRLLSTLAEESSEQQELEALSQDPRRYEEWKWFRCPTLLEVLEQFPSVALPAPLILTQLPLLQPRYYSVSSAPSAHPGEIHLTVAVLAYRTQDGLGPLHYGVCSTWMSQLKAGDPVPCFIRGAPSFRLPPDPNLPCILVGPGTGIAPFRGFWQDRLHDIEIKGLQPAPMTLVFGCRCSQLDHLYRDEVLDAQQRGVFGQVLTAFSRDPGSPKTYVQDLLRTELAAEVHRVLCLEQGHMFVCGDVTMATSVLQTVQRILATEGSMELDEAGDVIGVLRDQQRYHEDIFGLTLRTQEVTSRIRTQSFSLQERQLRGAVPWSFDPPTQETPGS

[4] = biological target: Nitric oxide synthase, brain (Homo sapiens) (UniProt P29475); experiment: Inhibition of recombinant N-terminal His-tagged human nNOS expressed in Escherichia coli assessed as L-[3H]-citrulline formation using L-[3H]-arginine as substrate after 30 mins by liquid scintillation spectroscopy
Nitric oxide synthase, brain (Homo sapiens), sequence (P29475 whole entry, looked up): as the sequence (P29475 whole entry) above

[5] = biological target: Nitric oxide synthase, inducible (Homo sapiens) (UniProt P35228); experiment: Inhibition of recombinant iNOS (unknown origin) assessed as L-[3H]-citrulline formation using L-[3H]-arginine as substrate after 30 mins by liquid scintillation spectroscopy
Target sequence in this assay (P35228 whole entry, looked up): as the sequence (P35228 whole entry) above

[6] = biological target: T1, Nitric oxide synthase 3 (Rattus norvegicus); experiment: Inhibition of eNOS in Wistar rat aortic rings assessed as effect on acetylcholine evoked endothelial dependent relaxation of precontracted aortic rings at 100 umol/l after 30 mins
[7] = biological target: T2, Nitric oxide synthase 3 (Homo sapiens) (UniProt P29474); experiment: Inhibition of eNOS in HUVEC cells assessed as A23187 stimulated nitric oxide production at 100 umol/L preincubated for 30 mins using L-arginine as substrate for 5 mins followed A23187 addition measured after 30 mins by DAF2 dye based spectrofluorimetry; assay type: cell-based
T2 sequence (whole entry): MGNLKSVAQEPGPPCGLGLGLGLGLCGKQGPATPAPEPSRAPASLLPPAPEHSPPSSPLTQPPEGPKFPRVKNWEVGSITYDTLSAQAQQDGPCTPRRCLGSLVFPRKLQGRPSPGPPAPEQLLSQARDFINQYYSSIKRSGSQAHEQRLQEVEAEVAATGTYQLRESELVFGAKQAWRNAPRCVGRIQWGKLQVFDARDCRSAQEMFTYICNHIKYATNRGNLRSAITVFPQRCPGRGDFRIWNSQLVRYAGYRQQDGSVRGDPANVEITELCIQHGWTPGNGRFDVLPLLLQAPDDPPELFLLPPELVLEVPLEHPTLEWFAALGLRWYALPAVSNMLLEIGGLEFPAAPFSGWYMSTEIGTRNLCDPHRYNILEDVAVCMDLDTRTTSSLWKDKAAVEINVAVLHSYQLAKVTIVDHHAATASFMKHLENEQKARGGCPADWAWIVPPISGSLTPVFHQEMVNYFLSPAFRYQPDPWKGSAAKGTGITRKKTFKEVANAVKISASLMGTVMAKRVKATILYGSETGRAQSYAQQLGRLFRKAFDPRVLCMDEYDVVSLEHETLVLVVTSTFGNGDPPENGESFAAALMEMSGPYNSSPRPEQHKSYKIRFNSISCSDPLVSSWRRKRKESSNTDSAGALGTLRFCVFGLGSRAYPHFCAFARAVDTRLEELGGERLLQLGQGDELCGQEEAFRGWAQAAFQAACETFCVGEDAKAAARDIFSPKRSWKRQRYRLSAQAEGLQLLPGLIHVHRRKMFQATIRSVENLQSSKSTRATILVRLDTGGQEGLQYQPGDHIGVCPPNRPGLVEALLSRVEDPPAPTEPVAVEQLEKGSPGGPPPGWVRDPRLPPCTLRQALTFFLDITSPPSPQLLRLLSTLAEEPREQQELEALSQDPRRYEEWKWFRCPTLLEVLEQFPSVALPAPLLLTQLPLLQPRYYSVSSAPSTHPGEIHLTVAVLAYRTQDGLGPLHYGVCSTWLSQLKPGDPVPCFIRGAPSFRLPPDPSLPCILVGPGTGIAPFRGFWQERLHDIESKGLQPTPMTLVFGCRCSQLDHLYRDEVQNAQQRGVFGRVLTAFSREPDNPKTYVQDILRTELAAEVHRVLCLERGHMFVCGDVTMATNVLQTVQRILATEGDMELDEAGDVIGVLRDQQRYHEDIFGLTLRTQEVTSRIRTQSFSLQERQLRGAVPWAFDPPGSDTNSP

[8] = test system: HUVEC; experiment: Cytotoxicity against HUVEC cells assessed as reduction in cell viability at >1 mM after 30 mins by MTT assay; assay type: cell-based; conditions: human, 0.5 h

inhibition [1] [%]	inhibition [2] [%]	Compound	also measured
12.3	12.1	COc1ccc(N)c(C(O)CCNC(=O)Nc2ccccc2)c1 (stereo unspecified)	
78.6	9.86	CCNC(=O)NCCC(=O)c1cc(Cl)ccc1N	
19.6	23.8	CCCNC(=O)NCCC(O)c1cc(Cl)ccc1N (stereo unspecified)	
		COC(=O)[C@@H](N)CCCNC(=N)N[N+](=O)[O-]	inhibition [3]: Active
14.1		CCCCC(=O)NCCC(=O)c1cc(OC)ccc1N	
60.4	70.6	CCNC(=S)NCCC(O)c1cc(Cl)ccc1N (stereo unspecified)	pIC50 [4]: 3.11; pIC50 [5]: 3.10
18.3	7.81	CCNC(=O)NCCC(O)c1ccccc1N (stereo unspecified)	
22.1	70.5	CNC(=S)NCCC(O)c1cc(Cl)ccc1N (stereo unspecified)	pIC50 [4]: 3.15; pIC50 [5]: < 3.00
76.5	80.5	CNC(=S)NCCC(O)c1cc(OC)ccc1N (stereo unspecified)	inhibition [6]: inactive; inhibition [7]: inactive; pIC50 [4]: 3.89; pIC50 [5]: 3.74; Activity [8]: 20%
0.24		CCC(=O)NCCC(=O)c1cc(OC)ccc1N	
19.7		CC(=O)NCCC(=O)c1cc(Cl)ccc1N	
0.01		COc1ccc(N)c(C(=O)CCNC(=O)C2CCC2)c1	
9.24		COc1ccc(N)c(C(=O)CCNC(=O)C2CCCCC2)c1	
30.7		COc1ccc(N)c(C(=O)CCNC(C)=O)c1	
10.9		COc1ccc(N)c(C(=O)CCNC(=O)c2ccccc2)c1	
27.9	17.7	Nc1ccccc1C(O)CCNC(=O)Nc1ccccc1 (stereo unspecified)	

inhibition [1] [%]	inhibition [2] [%]	Compound	also measured
55	32.4	CCCNC(=S)NCCC(O)c1cc(Cl)ccc1N (stereo unspecified)	pIC50 [4]: < 3.00; pIC50 [5]: 3.07
19.4	44.8	CCNC(=S)NCCC(O)c1ccccc1N (stereo unspecified)	
26.6	43	CCNC(=O)NCCC(O)c1cc(OC)ccc1N (stereo unspecified)	
26.6		Nc1ccc(Cl)cc1C(=O)CCNC(=O)c1ccccc1	
14.7	15.8	CCCNC(=O)NCCC(O)c1cc(OC)ccc1N (stereo unspecified)	
33.9	15.2	CCNC(=O)NCCC(O)c1cc(Cl)ccc1N (stereo unspecified)	
2.66		COc1ccc(N)c(C(=O)CCNC(=O)C2CC2)c1	
20.7	70.2	CNC(=S)NCCC(O)c1ccccc1N (stereo unspecified)	pIC50 [4]: 3.46; pIC50 [5]: < 3.00
0.61		COc1ccc(N)c(C(=O)CCNC(=O)C2CCCC2)c1	
5.37		Nc1ccc(Cl)cc1C(=O)CCNC(=O)C1CC1	
7.35		CCCC(=O)NCCC(=O)c1cc(OC)ccc1N	
31.1	51.7	CCCNC(=S)NCCC(O)c1ccccc1N (stereo unspecified)	pIC50 [4]: 3.06; pIC50 [5]: < 3.00
78.2	46	CNC(=S)NCCC(=O)c1cc(OC)ccc1N	
25.4	6.02	CCCNC(=S)NCCC(O)c1cc(OC)ccc1N (stereo unspecified)	
3.11	38.6	Nc1ccc(Cl)cc1C(O)CCNC(=O)Nc1ccccc1 (stereo unspecified)	
19	7	CCCNC(=O)NCCC(O)c1ccccc1N (stereo unspecified)	
